Assay results: patent US9512111B2, “N-sulfonylated tetrahydroquinolines and related bicyclic compounds for inhibition of RORγ activity and the treatment of disease” (Lycera Corporation, priority 2010, dated 2016)

Legend:
RORγ-LBD = target: T1, RORγ-LBD (Homo sapiens, UniProt P51449); assay: RORγ-Ligand Binding Domain TR-FRET Assay; type: biochemical; conditions: benzoxazines, Table 9
T1 construct: HIS-tagged RORγ-LBD was recombinantly expressed in SF9 cells; made in house; host or cells: SF9 cells (baculovirus); unpurified lysate
T1 sequence (P51449 269-508 limits assumed): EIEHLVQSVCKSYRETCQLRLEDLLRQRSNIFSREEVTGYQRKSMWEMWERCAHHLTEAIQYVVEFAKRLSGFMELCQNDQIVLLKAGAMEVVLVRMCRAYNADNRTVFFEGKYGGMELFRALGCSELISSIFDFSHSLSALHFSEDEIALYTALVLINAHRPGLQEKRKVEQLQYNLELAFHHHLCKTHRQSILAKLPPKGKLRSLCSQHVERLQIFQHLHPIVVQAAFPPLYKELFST
Method in brief: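 Unpurified His-tagged LBD in Sf9 lysate (~10 nM final) in 25 mM HEPES pH 7.0, 100 mM NaCl, 0.01% Tween, 0.1% BSA, with biotinylated SRC1-2 LXXLL peptide (450 nM), Eu anti-His (2 nM) and streptavidin-APC (60 nM). Incubated 4 h to overnight; IC50 from 665/615 nm TR-FRET ratio.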

RORγt = target: T2, RORγt (Homo sapiens, UniProt P51449); assay: RORγ Reporter Assay (GAL4-UAS luciferase reporter in HEK293 cells); type: cell-based; conditions: benzoxazines, Table 9; HEK cells
T2 construct: The resulting GAL4-RORγt-LBD fusion construct was placed under the control of a constitutive cytomegalovirus (CMV) promoter; expressed in transfected cells; host or cells: HEK293
T2 sequence (P51449 269-508 limits assumed): T1 sequence (P51449 269-508 limits assumed)

Row | SMILES | IC50 (RORγ-LBD) [µM] | IC50 (RORγt) [µM]
1 | O=C(Nc1ccc2c(c1)N(S(=O)(=O)c1ccc(F)cc1)CC(C(F)(F)F)O2)c1c(Cl)cccc1Cl (stereo not shown) [VI-107] | < 15 | < 15
2 | CCN(CC)CC1CN(S(=O)(=O)c2ccc(F)cc2)c2cc(NC(=O)c3c(F)cccc3Cl)ccc2O1 (stereo not shown) [VI-38] | < 15 | < 15
3 | Cc1nn(C(F)F)cc1S(=O)(=O)N1C[C@H](C)Oc2ccc(NC(=O)c3c(F)cccc3F)cc21 [VI-8] | < 15 | < 15
4 | CC(C)OCC1CN(S(=O)(=O)c2ccc(F)cc2)c2cc(NC(=O)c3c(Cl)cccc3C(F)(F)F)ccc2O1 (stereo not shown) [VI-123] | < 15 | < 15
5 | CC(=O)NCC1CN(S(=O)(=O)c2ccc(F)cc2)c2cc(NC(=O)c3c(F)cccc3Cl)ccc2O1 (stereo not shown) [VI-39] | < 15 | < 15
